PubChem BioAssay AID242 (DTP/NCI, 2004)
Several values for one entry are separate records, joined by “and”; a condition that tells them apart may be missing. Equal values may be shown once. Toxic doses and inconclusive results are not listed. The calls were made as follows: active = survival T/C of 150% or more; inactive = T/C below 125% in these data.

System: BDF1 mice, Lymphoma 8 ip, survival T/C
Assay: NCI In Vivo Anticancer Drug Screen. Data for tumor model Lymphoma 8 (intraperitoneal) in B6D2F1 (BDF1) mice
Settings: higher = longer survival
Method: The antitumor activity of compounds was measured in mice bearing transplantable tumors. Survival or tumor size were measured and the results are expressed as the measurement made in the treated group (T) divided by the measurement made in the vehicle treated control group (C). The tumor model used in this assay is Lymphoma 8 (intraperitoneal) in B6D2F1 (BDF1) mice

[1] = endpoint: survival time, mean or median, dose: 10.0 mg/kg/injection, schedule: Q01DX010 (ip), vehicle: saline
[2] = endpoint: survival time, mean or median, dose: 20.0 mg/kg/injection, schedule: Q01DX010 (ip), vehicle: saline
[3] = endpoint: survival time, mean or median, dose: 200.0 mg/kg/injection, schedule: Q01DX008 (ip), vehicle: saline
[4] = endpoint: survival time, mean or median, dose: 3.13 mg/kg/injection, schedule: Q01DX010 (ip), vehicle: saline
[5] = endpoint: survival time, mean or median, dose: 6.25 mg/kg/injection, schedule: Q01DX010 (ip), vehicle: saline
[6] = endpoint: survival time, mean or median, dose: 12.5 mg/kg/injection, schedule: Q01DX010 (ip), vehicle: saline
[7] = endpoint: survival time, mean or median, dose: 50.0 mg/kg/injection, schedule: Q01DX015 (ip), vehicle: carboxymethylcellulose (CMC)
[8] = endpoint: survival time, mean or median, dose: 200.0 mg/kg/injection, schedule: Q01DX015 (ip), vehicle: carboxymethylcellulose (CMC)

Measured: T/C

NC(=O)c1[nH]nc(C2OC(CO)C(O)C2O)c1O (configuration not stated)
inactive: endpoint: median survival time, dose: 1.56 mg/kg/injection, schedule: Q04DX003 (ip), vehicle: saline 100 % of control | endpoint: median survival time, dose: 2.59 mg/kg/injection, schedule: Q04DX003 (ip), vehicle: saline 103 % of control | endpoint: median survival time, dose: 4.32 mg/kg/injection, schedule: Q04DX003 (ip), vehicle: saline 103 % of control | endpoint: median survival time, dose: 7.2 mg/kg/injection, schedule: Q04DX003 (ip), vehicle: saline 104 % of control | endpoint: median survival time, dose: 12.0 mg/kg/injection, schedule: Q04DX003 (ip), vehicle: saline 122 % of control | endpoint: median survival time, dose: 20.0 mg/kg/injection, schedule: Q04DX003 (ip), vehicle: saline 111 % of control

Cc1cc(N(CCCl)CCCl)ccc1N=Nc1ccccc1C(=O)O
inactive: endpoint: survival time, mean or median, dose: 5.0 mg/kg/injection, schedule: Q01DX010 (ip), vehicle: saline 91 % of control and 107 % of control | [1] 108 % of control and 110 % of control | [2] 108 % of control

O=NN(CCCl)C(=O)NCCCl
inactive: endpoint: survival time, mean or median, dose: 2.64 mg/kg/injection, schedule: Q01DX015 (ip), vehicle: saline 90 % of control

CCOC(N)=O
inactive: endpoint: survival time, mean or median, dose: 125.0 mg/kg/injection, schedule: Q01DX010 (ip), vehicle: saline 105 % of control | endpoint: survival time, mean or median, dose: 250.0 mg/kg/injection, schedule: Q01DX010 (ip), vehicle: saline 100 % of control | endpoint: survival time, mean or median, dose: 500.0 mg/kg/injection, schedule: Q01DX010 (ip), vehicle: saline 100 % of control

O=c1cnn(C2OC(CO)C(O)C2O)c(=O)[nH]1 (configuration not stated)
inactive: [3] 115 % of control | endpoint: survival time, mean or median, dose: 800.0 mg/kg/injection, schedule: Q01DX008 (ip), vehicle: saline 96 % of control

O=C(O)CCCc1ccc(N(CCCl)CCCl)cc1
inactive: [4] 100 % of control and 104 % of control | [5] 104 % of control and 116 % of control | [6] 104 % of control

CC(C)CNS(=O)(=O)c1ncnc2nc[nH]c12
inactive: endpoint: survival time, mean or median, dose: 18.8 mg/kg/injection, schedule: Q01DX015 (ip), vehicle: carboxymethylcellulose (CMC) 114 % of control | endpoint: survival time, mean or median, dose: 37.5 mg/kg/injection, schedule: Q01DX015 (ip), vehicle: carboxymethylcellulose (CMC) 99 % of control | endpoint: survival time, mean or median, dose: 75.0 mg/kg/injection, schedule: Q01DX015 (ip), vehicle: carboxymethylcellulose (CMC) 96 % of control

Cc1cc2nc3c(=O)[nH]c(=O)nc-3n(CC(O)C(O)C(O)C(O)CO)c2cc1C (configuration not stated)
inactive: [7] 90 % of control | [8] 87 % of control

O=c1[nH]c(=O)n(C2CC(O)C(CO)O2)cc1F (configuration not stated)
inactive: [1] 103 % of control | [2] 100 % of control | endpoint: survival time, mean or median, dose: 40.0 mg/kg/injection, schedule: Q01DX010 (ip), vehicle: saline 114 % of control | endpoint: survival time, mean or median, dose: 80.0 mg/kg/injection, schedule: Q01DX010 (ip), vehicle: saline 96 % of control

CS(=O)(=O)OCCCCOS(C)(=O)=O
inactive: [5] 100 % of control | [6] 105 % of control | endpoint: survival time, mean or median, dose: 25.0 mg/kg/injection, schedule: Q01DX010 (ip), vehicle: saline 100 % of control | endpoint: survival time, mean or median, dose: 50.0 mg/kg/injection, schedule: Q01DX010 (ip), vehicle: saline 105 % of control

Cn1c(O)c(N=NC(N)=S)c2ccccc21
inactive: endpoint: survival time, mean or median, dose: 1.5 mg/kg/injection, schedule: Q01DX015 (ip), vehicle: carboxymethylcellulose (CMC) 100 % of control | endpoint: survival time, mean or median, dose: 3.0 mg/kg/injection, schedule: Q01DX015 (ip), vehicle: carboxymethylcellulose (CMC) 98 % of control | endpoint: survival time, mean or median, dose: 6.0 mg/kg/injection, schedule: Q01DX015 (ip), vehicle: carboxymethylcellulose (CMC) 99 % of control | endpoint: survival time, mean or median, dose: 12.5 mg/kg/injection, schedule: Q01DX015 (ip), vehicle: carboxymethylcellulose (CMC) 95 % of control | endpoint: survival time, mean or median, dose: 25.0 mg/kg/injection, schedule: Q01DX015 (ip), vehicle: carboxymethylcellulose (CMC) 97 % of control | [7] 124 % of control | endpoint: survival time, mean or median, dose: 100.0 mg/kg/injection, schedule: Q01DX015 (ip), vehicle: carboxymethylcellulose (CMC) 117 % of control | [8] 115 % of control

CCCNc1ncnc2[nH]ncc12
inactive: [4] 104 % of control (2×) and 105 % of control | [5] 105 % of control and 106 % of control | [6] 90 % of control and 100 % of control and 114 % of control

NC(=O)/C=C/NC(=O)/C=N\O
inactive: endpoint: survival time, mean or median, dose: 50.0 mg/kg/injection, schedule: Q01DX008 (ip), vehicle: saline 92 % of control | [3] 88 % of control

CCOC=Nc1c(N)ncnc1Cl
inactive: endpoint: survival time, mean or median, dose: 62.5 mg/kg/injection, schedule: Q01DX015 (ip), vehicle: olive oil, sesame oil, peanut oil 107 % of control | endpoint: survival time, mean or median, dose: 125.0 mg/kg/injection, schedule: Q01DX015 (ip), vehicle: olive oil, sesame oil, peanut oil 93 % of control | endpoint: survival time, mean or median, dose: 250.0 mg/kg/injection, schedule: Q01DX015 (ip), vehicle: olive oil, sesame oil, peanut oil 101 % of control | endpoint: survival time, mean or median, dose: 500.0 mg/kg/injection, schedule: Q01DX015 (ip), vehicle: olive oil, sesame oil, peanut oil 101 % of control

CS(=O)(=O)OCCCl
inactive: endpoint: survival time, mean or median, dose: 9.4 mg/kg/injection, schedule: Q01DX010 (ip), vehicle: saline 107 % of control | endpoint: survival time, mean or median, dose: 18.8 mg/kg/injection, schedule: Q01DX010 (ip), vehicle: saline 91 % of control and 96 % of control | endpoint: survival time, mean or median, dose: 37.5 mg/kg/injection, schedule: Q01DX010 (ip), vehicle: saline 91 % of control and 100 % of control | endpoint: survival time, mean or median, dose: 75.0 mg/kg/injection, schedule: Q01DX010 (ip), vehicle: saline 91 % of control and 96 % of control

CN(N=O)C(=O)N[C@@H](C=O)[C@@H](O)[C@H](O)[C@H](O)CO
inactive: endpoint: survival time, mean or median, dose: 12.5 mg/kg/injection, schedule: Q01DX008 (im), vehicle: saline 124 % of control | endpoint: survival time, mean or median, dose: 12.5 mg/kg/injection, schedule: Q01DX008 (ip), vehicle: saline 116 % of control | endpoint: survival time, mean or median, dose: 12.5 mg/kg/injection, schedule: Q01DX008 (iv), vehicle: saline 97 % of control | endpoint: survival time, mean or median, dose: 12.5 mg/kg/injection, schedule: Q01DX008 (sc), vehicle: saline 116 % of control | endpoint: survival time, mean or median, dose: 25.0 mg/kg/injection, schedule: Q01DX008 (ip), vehicle: saline 115 % of control | endpoint: survival time, mean or median, dose: 25.0 mg/kg/injection, schedule: Q01DX008 (iv), vehicle: saline 106 % of control | endpoint: survival time, mean or median, dose: 25.0 mg/kg/injection, schedule: Q01DX008 (sc), vehicle: saline 124 % of control | endpoint: survival time, mean or median, dose: 50.0 mg/kg/injection, schedule: Q01DX008 (iv), vehicle: saline 107 % of control | endpoint: survival time, mean or median, dose: 100.0 mg/kg/injection, schedule: Q01DX008 (im), vehicle: saline 86 % of control | endpoint: survival time, mean or median, dose: 100.0 mg/kg/injection, schedule: Q01DX008 (ip), vehicle: saline 96 % of control | endpoint: survival time, mean or median, dose: 100.0 mg/kg/injection, schedule: Q01DX008 (iv), vehicle: saline 106 % of control | endpoint: survival time, mean or median, dose: 100.0 mg/kg/injection, schedule: Q01DX Z (oral), vehicle: saline 100 % of control | endpoint: survival time, mean or median, dose: 200.0 mg/kg/injection, schedule: Q01DX Z (oral), vehicle: saline 100 % of control | endpoint: survival time, mean or median, dose: 400.0 mg/kg/injection, schedule: Q01DX Z (oral), vehicle: saline 117 % of control | endpoint: survival time, mean or median, dose: 800.0 mg/kg/injection, schedule: Q01DX Z (oral), vehicle: saline 97 % of control

Nc1c(Br)cc2c(c1Br)Cc1cc([N+](=O)[O-])ccc1-2
inactive: endpoint: survival time, mean or median, dose: 62.5 mg/kg/injection, schedule: Q01DX015 (ip), vehicle: carboxymethylcellulose (CMC) 88 % of control | endpoint: survival time, mean or median, dose: 125.0 mg/kg/injection, schedule: Q01DX015 (ip), vehicle: carboxymethylcellulose (CMC) 87 % of control

NC(=O)c1cn(C2OC(CO)C(O)C2O)c2ncnc(N)c12 (configuration not stated)
inactive: endpoint: survival time, mean or median, dose: 0.5 mg/kg/injection, schedule: Q01DX015 (ip), vehicle: carboxymethylcellulose (CMC) 106 % of control | endpoint: survival time, mean or median, dose: 1.0 mg/kg/injection, schedule: Q01DX015 (ip), vehicle: carboxymethylcellulose (CMC) 116 % of control | endpoint: survival time, mean or median, dose: 2.0 mg/kg/injection, schedule: Q01DX015 (ip), vehicle: carboxymethylcellulose (CMC) 94 % of control
